Experimental data as given in ChEMBL document CHEMBL1143107 (Bioorg Med Chem, 2008).

What was measured:
[1] = target: T1, Prostaglandin G/H synthase 2 (Homo sapiens, UniProt P35354)
T1 sequence (P35354 whole entry): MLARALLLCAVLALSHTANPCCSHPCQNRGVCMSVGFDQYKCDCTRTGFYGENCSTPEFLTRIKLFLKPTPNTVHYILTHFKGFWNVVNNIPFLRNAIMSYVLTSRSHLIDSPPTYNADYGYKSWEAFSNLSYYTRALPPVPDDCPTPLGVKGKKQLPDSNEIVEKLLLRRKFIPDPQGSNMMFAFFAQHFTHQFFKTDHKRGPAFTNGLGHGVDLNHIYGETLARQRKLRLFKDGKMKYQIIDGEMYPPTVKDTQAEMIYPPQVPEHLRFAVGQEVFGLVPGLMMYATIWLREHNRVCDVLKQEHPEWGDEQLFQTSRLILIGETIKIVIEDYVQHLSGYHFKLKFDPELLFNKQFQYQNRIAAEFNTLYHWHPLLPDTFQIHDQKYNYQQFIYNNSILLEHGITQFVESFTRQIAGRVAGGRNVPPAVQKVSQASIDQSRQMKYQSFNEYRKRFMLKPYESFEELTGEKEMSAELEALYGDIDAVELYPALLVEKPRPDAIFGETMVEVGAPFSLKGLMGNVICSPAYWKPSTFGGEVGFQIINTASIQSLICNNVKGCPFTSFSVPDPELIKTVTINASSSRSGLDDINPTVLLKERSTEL
Description: Inhibition of human COX2 in human whole blood

Homo sapiens [2] = organism: Homo sapiens; assay: Ratio of IC50 for human COX1 to IC50 for human COX2 in human whole blood; format: tissue-based
Homo sapiens [3] = organism: Homo sapiens; assay: Ratio of IC50 for human COX1 to IC50 for human COX2
[4] = target: T1, Prostaglandin G/H synthase 2; remark: listed apart in the source

IC50 [1] [nM]	Ratio IC50 (Homo sapiens [3])	IC50 [4] [nM]	Compound	Ratio IC50 (Homo sapiens [2])
803	> 140	712	NS(=O)(=O)c1ccc(-c2nc(NCC3CCCCC3)cc(C(F)(F)F)n2)cc1	> 124
22.4			Cc1c(NCc2ccc(F)cc2)nc(-c2ccc(S(C)(=O)=O)cc2)nc1C(F)(F)F	> 447
528			Cc1ccsc1CNc1cc(C(F)(F)F)nc(-c2ccc(S(C)(=O)=O)cc2)n1	189
> 10000			CCN(Cc1ccccc1)c1cc(C(F)(F)F)nc(-c2ccc(S(C)(=O)=O)cc2)n1	> 1
> 10000	> 1	> 10000	CS(=O)(=O)c1ccc(-c2nc(NCc3cccnc3)cc(C(F)(F)F)n2)cc1	> 1
274			CC(C)Nc1cc(NCc2ccccc2)nc(-c2ccc(S(C)(=O)=O)cc2)n1	> 365
> 10000			CS(=O)(=O)c1ccc(-c2nc(C(F)(F)F)cc(S(=O)(=O)Cc3ccccc3)n2)cc1	> 1
144			CCS(=O)(=O)c1cc(NCc2cccs2)nc(-c2ccc(S(C)(=O)=O)cc2)n1	15
> 10000			CS(=O)(=O)c1ccc(-c2nc(Nc3ccccc3)cc(C(F)(F)F)n2)cc1	> 1
18			Cc1c(NCc2ccccc2)nc(-c2ccc(S(C)(=O)=O)cc2)nc1C(F)(F)F	> 556
3330	> 52	1890	NS(=O)(=O)c1ccc(-c2nc(NCc3ccncc3)cc(C(F)(F)F)n2)cc1	> 3
90.7			CCS(=O)(=O)c1cc(NCc2ccccc2)nc(-c2ccc(S(C)(=O)=O)cc2)n1	> 110
1.2			CCSc1cc(NCc2cccs2)nc(-c2ccc(S(C)(=O)=O)cc2)n1	> 8400
> 10000	> 1	> 10000	NS(=O)(=O)c1ccc(-c2nc(NCc3cccnc3)cc(C(F)(F)F)n2)cc1	> 1
> 10000	> 1	> 10000	CS(=O)(=O)c1ccc(-c2nc(NCC3CCCC3)cc(C(F)(F)F)n2)cc1	> 1
> 10000	> 10	10000	NS(=O)(=O)c1ccc(-c2nc(NCc3csc4ccccc34)cc(C(F)(F)F)n2)cc1	> 1
> 10000			CC(C)c1ccc(Nc2cc(C(F)(F)F)nc(-c3ccc(S(C)(=O)=O)cc3)n2)cc1	> 1
44.4			Cc1ccc(CNc2cc(Cl)nc(-c3ccc(S(C)(=O)=O)cc3)n2)cc1	> 2250
> 10000			CS(=O)(=O)c1ccc(-c2nc(NCc3ccc(OC(F)(F)F)cc3)cc(C(F)(F)F)n2)cc1	> 1

IC50 [1] [nM]	Ratio IC50 (Homo sapiens [3])	IC50 [4] [nM]	Compound	Ratio IC50 (Homo sapiens [2])
> 10000	> 33	3000	NS(=O)(=O)c1ccc(-c2nc(NCc3ccccn3)cc(C(F)(F)F)n2)cc1	> 10
> 10000	> 1	> 10000	CS(=O)(=O)c1ccc(-c2nc(NCc3ccccn3)cc(C(F)(F)F)n2)cc1	> 1
272			COc1ccc(CNc2cc(C(F)(F)F)nc(-c3ccc(S(C)(=O)=O)cc3)n2)cc1	> 367
> 10000	> 25	3980	NS(=O)(=O)c1ccc(-c2nc(NCc3ccccc3)cc(C(F)(F)F)n2)cc1	> 5
> 10000			COCOc1ccc(CNc2cc(C(F)(F)F)nc(-c3ccc(S(C)(=O)=O)cc3)n2)cc1	> 1
	> 3610		CS(=O)(=O)c1ccc(-c2nc(NCC3CCCCC3)cc(C(F)(F)F)n2)cc1	> 68
> 10000	> 1	> 10000	CS(=O)(=O)c1ccc(-c2nc(NCc3nc4ccccc4[nH]3)cc(C(F)(F)F)n2)cc1	> 1
522			CC(Nc1cc(C(F)(F)F)nc(-c2ccc(S(C)(=O)=O)cc2)n1)c1ccccc1 (centres undefined)	74
> 10000			CC(C)c1ccc(CNc2cc(C(F)(F)F)nc(-c3ccc(S(C)(=O)=O)cc3)n2)cc1	> 1
77.2			CS(=O)(=O)c1ccc(-c2nc(NCc3ccc(F)cc3)cc(C(F)(F)F)n2)cc1	1300
3980			Cn1cccc1CCNc1cc(C(F)(F)F)nc(-c2ccc(S(C)(=O)=O)cc2)n1	> 25
38.2			Cc1c(NCc2cccs2)nc(-c2ccc(S(C)(=O)=O)cc2)nc1C(F)(F)F	> 78
11.7			Cc1ccc(CNc2cc(C(F)(F)F)nc(-c3ccc(S(C)(=O)=O)cc3)n2)s1	> 852
> 10000			CS(=O)(=O)c1ccc(-c2nc([S+]([O-])Cc3ccccc3)cc(C(F)(F)F)n2)cc1 (centres undefined)	> 1
10.3			CC(C)Nc1cc(NCc2cccs2)nc(-c2ccc(S(C)(=O)=O)cc2)n1	> 9720
24.1			CCSc1cc(NCc2ccccc2)nc(-c2ccc(S(C)(=O)=O)cc2)n1	414
121			CCc1c(NCc2cccs2)nc(-c2ccc(S(C)(=O)=O)cc2)nc1C(F)(F)F	> 83
300			CS(=O)(=O)c1ccc(-c2nc(NCc3cc(F)cc(F)c3)cc(C(F)(F)F)n2)cc1	> 333
9.2			CS(=O)(=O)c1ccc(-c2nccc(NCc3cccs3)n2)cc1	> 10900

More lines, now with the values behind:

Compound	IC50 [1] [nM]	Ratio IC50 (Homo sapiens [3])	IC50 [4] [nM]	Ratio IC50 (Homo sapiens [2])
CS(=O)(=O)c1ccc(-c2nccc(NCc3ccccc3)n2)cc1	> 10000			> 1
CS(=O)(=O)c1ccc(-c2nc(NCc3ccc(O)cc3)cc(C(F)(F)F)n2)cc1				> 158
CS(=O)(=O)c1ccc(-c2nc(NCC3CC=CCC3)cc(C(F)(F)F)n2)cc1 (centres undefined)	32.9	> 2320	43.1	> 304
Cc1ccccc1CNc1cc(C(F)(F)F)nc(-c2ccc(S(C)(=O)=O)cc2)n1				> 17
CS(=O)(=O)c1ccc(-c2nc(NCc3ccc(N)cc3)cc(C(F)(F)F)n2)cc1				473
CS(=O)(=O)c1ccc(-c2nc(Cl)cc(NCc3ccc(F)cc3)n2)cc1				2970
CS(=O)(=O)c1ccc(-c2nc(SCc3cccs3)cc(C(F)(F)F)n2)cc1	4.1			> 24400
CS(=O)(=O)c1ccc(-c2nc(SCc3ccccc3)cc(C(F)(F)F)n2)cc1	528			> 189
Cc1ccc(CNc2nc(-c3ccc(S(C)(=O)=O)cc3)nc(Cl)c2C)cc1	36.7			> 2730
CS(=O)(=O)c1ccc(-c2nc(NC3CCCC3)cc(C(F)(F)F)n2)cc1	476	> 522	192	80
CS(=O)(=O)c1ccc(-c2nc(O)cc(NCc3cccs3)n2)cc1				> 1260
CS(=O)(=O)c1ccc(-c2nc(Cl)cc(NCc3ccccc3)n2)cc1				> 9120
CS(=O)(=O)c1ccc(-c2nc(NCCc3cccs3)cc(C(F)(F)F)n2)cc1				> 83
NS(=O)(=O)c1ccc(-c2nc(NCc3cccs3)cc(C(F)(F)F)n2)cc1	158	3530	22.3	> 634
Cc1ccc(CNc2cc(C(F)(F)F)nc(-c3ccc(S(C)(=O)=O)cc3)n2)cc1	48.4			> 2060
CS(=O)(=O)c1ccc(-c2nc(Cl)cc(NCc3cccs3)n2)cc1				> 81300
Cc1cccc(CNc2cc(C(F)(F)F)nc(-c3ccc(S(C)(=O)=O)cc3)n2)c1				> 52
CC[S+]([O-])c1cc(NCc2cccs2)nc(-c2ccc(S(C)(=O)=O)cc2)n1 (centres undefined)				> 266
COc1cc(NCc2ccccc2)nc(-c2ccc(S(C)(=O)=O)cc2)n1	5.1			> 19600
CS(=O)(=O)c1ccc(-c2nc(NCc3cc4ccccc4s3)cc(C(F)(F)F)n2)cc1	293		5.92	
CC(C)(C)c1cc(NCc2ccccc2)nc(-c2ccc(S(C)(=O)=O)cc2)n1				1060
Cc1c(Cl)nc(-c2ccc(S(C)(=O)=O)cc2)nc1NCc1ccc(F)cc1				> 145
CCc1c(NCc2ccc(F)cc2)nc(-c2ccc(S(C)(=O)=O)cc2)nc1C(F)(F)F				> 972
COc1cc(NCc2cccs2)nc(-c2ccc(S(C)(=O)=O)cc2)n1				> 22000
CC(C)c1cc(NCc2ccccc2)nc(-c2ccc(S(C)(=O)=O)cc2)n1				> 396
CS(=O)(=O)c1ccc(-c2nc(O)cc(NCc3ccccc3)n2)cc1				> 2030
CN(Cc1ccccc1)c1cc(C(F)(F)F)nc(-c2ccc(S(C)(=O)=O)cc2)n1				22
CS(=O)(=O)Oc1ccc(CNc2cc(C(F)(F)F)nc(-c3ccc(S(C)(=O)=O)cc3)n2)cc1	> 10000			> 1
CS(=O)(=O)c1ccc(-c2nc(NCc3ccc(C(F)(F)F)cc3)cc(C(F)(F)F)n2)cc1				> 52
CS(=O)(=O)c1ccc(-c2nc(NC3CCCCC3)cc(C(F)(F)F)n2)cc1	238		253	
